Source: article PMC10938783, “A novel pan-PI3K inhibitor KTC1101 synergizes with anti-PD-1 therapy by targeting tumor suppression and immune activation” (Molecular Cancer, 2024)
Several values for one entry are separate records, joined by “and”; a condition that tells them apart may be missing. Equal entries are not always repeated.

Tested on: B16 cells gene expression
Assay: RNA-Seq (DEGs, GSEA, heatmaps) of B16 cells
Conditions: B16 cells, replicates KTC1-KTC3

## COc1cc(N)cc2c1nc(C(F)F)n2-c1nc(N2CCCOCC2)nc(N2CCOCC2)n1 [KTC]
KTC 0.04μM
  Adam19 gene expression (RNA-Seq): 11.78 and 12.44 and 13.05
  Axl gene expression (RNA-Seq): 4.83 and 4.54 and 4.92
  Btg1 gene expression (RNA-Seq): 6.87 and 7.6 and 7.15
  Capg gene expression (RNA-Seq): 24.95 and 22.04 and 23.37
  Ccl5 gene expression (RNA-Seq): 9.15 and 9.99 and 10.19
  Ccn1 gene expression (RNA-Seq): 37.5 and 41.45 and 42.8
  Ccnd1 gene expression (RNA-Seq): 70.38 and 71.17 and 69.7
  Cx3cl1 gene expression (RNA-Seq): 1.55 and 2.17 and 1.72
  Cxcl10 gene expression (RNA-Seq): 16.76 and 15.67 and 17.26
  Dusp1 gene expression (RNA-Seq): 4.08 and 4.86 and 3.75
  Dusp4 gene expression (RNA-Seq): 48.69 and 51.07 and 50.43
  Egr1 gene expression (RNA-Seq): 0.45 and 0.83 and 0.94
  Etv4 gene expression (RNA-Seq): 1.8 and 1.31 and 1.55
  Fos gene expression (RNA-Seq): 5.98 and 9.07 and 3.6
  Fosb gene expression (RNA-Seq): 5.83 and 8.56 and 1.19
  Hes1 gene expression (RNA-Seq): 2.93 and 3.6 and 4.11
  Irak2 gene expression (RNA-Seq): 4.46 and 3.71 and 4.84
  Irf6 gene expression (RNA-Seq): 0.75 and 0.73 (2×)
  Irs2 gene expression (RNA-Seq): 4.62 and 4.54 and 4.48
  Jag1 gene expression (RNA-Seq): 3.9 and 3.6 and 3.87
  Junb gene expression (RNA-Seq): 5.41 and 5.91 and 6.31
  Klf2 gene expression (RNA-Seq): 2.37 and 2.53 and 1.84
  Klf9 gene expression (RNA-Seq): 1.42 and 1.56 and 1.52
  Maff gene expression (RNA-Seq): 1.99 and 1.97 and 1.81
  Myc gene expression (RNA-Seq): 51.1 and 50.03 and 54.71
  Nfkb2 gene expression (RNA-Seq): 19.99 and 21.56 and 22.54
  Nfkbia gene expression (RNA-Seq): 16.08 and 16.06 and 15.47
  Nfkbie gene expression (RNA-Seq): 12.93 and 13.17 and 14.09
  Nr4a1 gene expression (RNA-Seq): 27.6 and 28.38 and 30.22
  Nr4a3 gene expression (RNA-Seq): 13.97 and 13.13 and 12.62
  P2rx7 gene expression (RNA-Seq): 9.9 and 10.96 and 10.37
  Pde4b gene expression (RNA-Seq): 7.81 and 8.81 and 8.51
  Pmepa1 gene expression (RNA-Seq): 0.72 and 0.75 and 0.79
  Pnrc1 gene expression (RNA-Seq): 23.22 and 24.79 and 24.57
  Relb gene expression (RNA-Seq): 7.12 and 7.46 and 7.78
  Rgs16 gene expression (RNA-Seq): 6.49 and 5.97 and 6.54
  Rhob gene expression (RNA-Seq): 30.37 and 32.79 and 32.66
  Serpine1 gene expression (RNA-Seq): 0.22 and 0.24 and 0.32
  Sgk1 gene expression (RNA-Seq): 3.46 and 3.48 and 3.41
  Sgms2 gene expression (RNA-Seq): 0.2 and 0.16 and 0.24
  Spred2 gene expression (RNA-Seq): 15.32 and 15.07 and 16.22
  Spry4 gene expression (RNA-Seq): 1.16 and 1.17 and 1.15
  Tiparp gene expression (RNA-Seq): 15.99 and 15.69 and 16.6
  Zc3h12a gene expression (RNA-Seq): 2.43 and 2.61 and 1.93
  Zfp36 gene expression (RNA-Seq): 3.85 and 4.04 and 4.57
KTC 0.2μM
  Adam19 gene expression (RNA-Seq): 19.27 and 19.65 and 19.87
  Adcy1 gene expression (RNA-Seq): 0.05 (2×) and 0.09
  Adcy6 gene expression (RNA-Seq): 15.71 and 16.34 and 15.68
  Adcy7 gene expression (RNA-Seq): 24.18 and 23.98 and 24.16
  Ahr gene expression (RNA-Seq): 3.75 and 3.9 and 4.26
  Arrb1 gene expression (RNA-Seq): 7.32 and 7.58 and 7.1
  Axl gene expression (RNA-Seq): 19.13 and 18.11 and 18.34
  Bcl3 gene expression (RNA-Seq): 1.26 and 1.46 and 1.81
  Birc3 gene expression (RNA-Seq): 0.82 and 0.69 and 1.02
  Btg1 gene expression (RNA-Seq): 10.22 and 9.53 and 9.68
  Capg gene expression (RNA-Seq): 39.95 and 40.18 and 41.23
  Ccl5 gene expression (RNA-Seq): 26.92 and 30.51 and 26.01
  Ccl6 gene expression (RNA-Seq): 0.22 (2×) and 0.39
  Ccl9 gene expression (RNA-Seq): 0.11 and 0.07 and 0.02
  Ccl27b gene expression (RNA-Seq): 0.37 and 0.93 and 0.69
  Ccn1 gene expression (RNA-Seq): 43.03 and 43.88 and 47.2
  Ccnd1 gene expression (RNA-Seq): 93.08 and 94.99 and 95.21
  Cish gene expression (RNA-Seq): 2.04 and 1.79 and 1.74
  Ckap4 gene expression (RNA-Seq): 13.31 and 12.58 and 12.66
  Cx3cl1 gene expression (RNA-Seq): 1.83 and 1.75 and 1.74
  Cxcl1 gene expression (RNA-Seq): 0.29 and 0.77 and 0.5
  Cxcl10 gene expression (RNA-Seq): 23.61 and 22.04 and 22.99
  Cxcr3 gene expression (RNA-Seq): 1.95 and 1.7 and 1.8
  Dcps gene expression (RNA-Seq): 124.78 and 129.34 and 129.92
  Dusp1 gene expression (RNA-Seq): 6.18 and 4.88 and 5.31
  Dusp4 gene expression (RNA-Seq): 74.48 and 66.32 and 71.85
  Egr1 gene expression (RNA-Seq): 2.42 and 2.39 and 2.31
  Egr2 gene expression (RNA-Seq): 0.12 and 0.14 and 0.22
  Etfbkmt gene expression (RNA-Seq): 13.18 and 12.47 and 12.84
  Etv4 gene expression (RNA-Seq): 2.57 and 3.09 and 3.52
  Fos gene expression (RNA-Seq): 6.53 and 3.78 and 2.09
  Fosb gene expression (RNA-Seq): 6.21 and 3 and 0.33
  Gnb4 gene expression (RNA-Seq): 8.23 and 8.94 and 8.73
  Gng11 gene expression (RNA-Seq): 47.07 and 50.78 and 52.97
  Gsto1 gene expression (RNA-Seq): 56.3 and 52.98 and 58.2
  Hes1 gene expression (RNA-Seq): 4.87 and 4.41 and 5.8
  Ifitm3 gene expression (RNA-Seq): 48.58 and 48.45 and 50.69
  Igf1r gene expression (RNA-Seq): 6.64 and 6.31 and 6.49
  Ikzf2 gene expression (RNA-Seq): 0.58 and 0.65 and 0.83
  Il3ra gene expression (RNA-Seq): 8.13 and 8.28 and 7.91
  Il4ra gene expression (RNA-Seq): 0.35 and 0.33 and 0.39
  Il15ra gene expression (RNA-Seq): 0.8 and 0.77 and 0.98
  Il18 gene expression (RNA-Seq): 2.98 and 3.73 and 3.81
  Irak2 gene expression (RNA-Seq): 6.66 and 7.18 and 6.91
  Irf6 gene expression (RNA-Seq): 0.95 and 0.94 and 0.76
  Irs2 gene expression (RNA-Seq): 6.99 and 6.74 and 7.06
  Jag1 gene expression (RNA-Seq): 5.14 and 5.2 and 5.32
  Junb gene expression (RNA-Seq): 9.95 and 9.21 and 10.31
  Klf2 gene expression (RNA-Seq): 5.92 and 4.44 and 4.22
  Klf4 gene expression (RNA-Seq): 1.74 and 0.87 and 0.94
  Klf9 gene expression (RNA-Seq): 2.21 and 2.14 and 2.03
  Lif gene expression (RNA-Seq): 0.18 and 0.1 and 0.2
  Lrrc8c gene expression (RNA-Seq): 9.54 and 9.91 and 9.16
  Maff gene expression (RNA-Seq): 8.01 and 8.27 and 7.95
  Myc gene expression (RNA-Seq): 80.51 and 79.74 and 85.17
  Nfkb2 gene expression (RNA-Seq): 29.06 and 30.4 and 30.6
  Nfkbia gene expression (RNA-Seq): 28.35 and 27.12 and 24.65
  Nfkbie gene expression (RNA-Seq): 23.83 and 25.35 and 25
  Nr4a1 gene expression (RNA-Seq): 46.25 and 44.44 and 46.02
  Nr4a3 gene expression (RNA-Seq): 17.79 and 16.5 and 17.39
  P2rx7 gene expression (RNA-Seq): 16.97 and 18.85 and 16.56
  Pde4b gene expression (RNA-Seq): 11.38 and 11.69 and 11.76
  Pim1 gene expression (RNA-Seq): 7.35 and 8.15 and 8.02
  Plcb2 gene expression (RNA-Seq): 0.43 and 0.62 and 0.67
  Plcg2 gene expression (RNA-Seq): 1.3 and 1.71 and 1.76
  Pmepa1 gene expression (RNA-Seq): 1.45 and 1.08 and 1.06
  Pnrc1 gene expression (RNA-Seq): 33.48 and 28.22 and 29.95
  Prnp gene expression (RNA-Seq): 1380.34 and 1358.49 and 1354.58
  Ptk2b gene expression (RNA-Seq): 2.37 and 2.08 and 2.03
  Relb gene expression (RNA-Seq): 11.53 and 13.05 and 11.17
  Rgs16 gene expression (RNA-Seq): 9.71 and 10 and 9.9
  Rhob gene expression (RNA-Seq): 60.96 and 58.66 and 58.57
  Serpine1 gene expression (RNA-Seq): 1.09 and 0.86 and 1.2
  Shc3 gene expression (RNA-Seq): 0.37 and 0.31 and 0.25
  Smad3 gene expression (RNA-Seq): 20.9 and 21.03 and 22.24
  Smpdl3a gene expression (RNA-Seq): 36.94 and 40.39 and 39.45
  Spred2 gene expression (RNA-Seq): 19.27 and 21.51 and 19.83
  Spry4 gene expression (RNA-Seq): 2.44 and 2.59 and 2.62
  Src gene expression (RNA-Seq): 43.09 and 43.5 and 41.98
  St3gal4 gene expression (RNA-Seq): 75.01 and 74.93 and 70.63
  Syt11 gene expression (RNA-Seq): 7.36 and 7.81 and 7.47
  Tlr2 gene expression (RNA-Seq): 0.22 and 0.34 and 0.25
  Tlr7 gene expression (RNA-Seq): 0.79 and 0.75 and 0.7
  Tnfaip3 gene expression (RNA-Seq): 0.93 and 0.95 and 0.79
  Zc3h12a gene expression (RNA-Seq): 3.34 and 3.16 and 3.73
